Laboratory results as given in ChEMBL document CHEMBL3217684, “Synthesis and cytotoxicity evaluation of regioisomeric substituted N-phenyl-3-(chrom-4-one-3-yl)-isoxazolidines: induction of apoptosis through a mitochondrial-dependent pathway” (Medchemcomm, 2013).
Calls of active or inactive are those of the source. The calls are words filed in the database; no cut-off is given here.

How the values were obtained:
THP-1 = assay: Cytotoxicity against human THP1 cells assessed as inhibition of cell proliferation after 48 hrs by sulforhodamine-B assay; assay type: functional, cell-based; details: THP-1, 48 h
PC-3 = assay: Cytotoxicity against human PC3 cells assessed as inhibition of cell proliferation after 48 hrs by sulforhodamine-B assay; assay type: functional, cell-based; details: PC-3, 48 h
Caco-2 = assay: Cytotoxicity against human Caco2 cells assessed as inhibition of cell proliferation after 48 hrs by sulforhodamine-B assay; assay type: functional, cell-based; details: Caco-2, 48 h
A549 = assay: Cytotoxicity against human A549 cells assessed as inhibition of cell proliferation after 48 hrs by sulforhodamine-B assay; assay type: functional, cell-based; details: A549, 48 h
HL-60 [1] = assay: Induction of apoptosis in human HL60 cells assessed as loss of mitochondrial membrane potential at 30 uM after 24 hrs by Rhodamine 123 staining based flow cytometry (reference value: 7%); assay type: functional
HL-60 [2] = assay: Induction of apoptosis in human HL60 cells assessed as accumulation of DNA at sub-G0 phase at 50 uM after 24 hrs by propidium iodide staining based flow cytometry (Rvb= 4.2%); assay type: functional
HL-60 [3] = assay: Induction of apoptosis in human HL60 cells assessed as DNA fragmentation at 50 uM after 24 hrs by agarose gel electrophoresis analysis; assay type: functional, cell-based
HL-60 [4] = assay: Induction of apoptosis in human HL60 cells assessed as accumulation of DNA at sub-G0 phase at 100 uM after 24 hrs by propidium iodide staining based flow cytometry (Rvb= 4.2%); assay type: functional
HL-60 [5] = assay: Induction of apoptosis in human HL60 cells assessed as condensation and fragmentation of nuclei at 50 to 100 uM after 24 hrs by DAPI staining based fluorescence microscopic analysis; assay type: functional, cell-based
HL-60 [6] = assay: Induction of apoptosis in human HL60 cells assessed as mitochondrial damage and loss of mitochondrial membrane potential after 24 hrs by Rhodamine 123 staining based flow cytometry; assay type: functional, cell-based
HL-60 [7] = assay: Induction of apoptosis in human HL60 cells assessed as intact mitochondrial membrane potential at 30 uM after 24 hrs by Rhodamine 123 staining based flow cytometry (reference value: 93.6%); assay type: functional
HL-60 [8] = assay: Induction of apoptosis in human HL60 cells assessed as intact mitochondrial membrane potential at 10 uM after 24 hrs by Rhodamine 123 staining based flow cytometry (reference value: 93.6%); assay type: functional
HL-60 [9] = assay: Induction of apoptosis in human HL60 cells assessed as accumulation of DNA at sub-G0 phase at 10 uM after 24 hrs by propidium iodide staining based flow cytometry (Rvb= 4.2%); assay type: functional
HL-60 [10] = assay: Induction of apoptosis in human HL60 cells assessed as loss of mitochondrial membrane potential at 50 uM after 24 hrs by Rhodamine 123 staining based flow cytometry (reference value: 7%); assay type: functional
HL-60 [11] = assay: Induction of apoptosis in human HL60 cells assessed as accumulation of DNA at sub-G0 phase at 30 uM after 24 hrs by propidium iodide staining based flow cytometry (Rvb= 4.2%); assay type: functional
HL-60 [12] = assay: Induction of apoptosis in human HL60 cells assessed as loss of mitochondrial membrane potential at 10 uM after 24 hrs by Rhodamine 123 staining based flow cytometry (reference value: 7%); assay type: functional
HL-60 [13] = assay: Induction of apoptosis in human HL60 cells assessed as intact mitochondrial membrane potential at 50 uM after 24 hrs by Rhodamine 123 staining based flow cytometry (reference value: 93.6%); assay type: functional
HL-60 [14] = assay: Induction of apoptosis in human HL60 cells assessed as accumulation of DNA at sub-G0 phase at 1 uM after 24 hrs by propidium iodide staining based flow cytometry (Rvb= 4.2%); assay type: functional
HL-60 [15] = assay: Induction of apoptosis in human HL60 cells assessed as intact mitochondrial membrane potential at 1 uM after 24 hrs by Rhodamine 123 staining based flow cytometry (reference value: 93.6%); assay type: functional
HL-60 [16] = assay: Induction of apoptosis in human HL60 cells assessed as loss of mitochondrial membrane potential at 1 uM after 24 hrs by Rhodamine 123 staining based flow cytometry (reference value: 7%); assay type: functional

## CCO[C@H]1C[C@@H](c2coc3ccc(F)cc3c2=O)N(c2ccccc2)O1 (relative stereo)
THP-1
  IC50: > 60 µM
PC-3
  IC50: 31.7 µM
Caco-2
  IC50: > 60 µM
A549
  IC50: 26.4 µM

## COC(=O)[C@H]1C[C@@H](c2coc3ccccc3c2=O)N(c2ccccc2)O1 (relative stereo)
THP-1
  IC50: > 60 µM
PC-3
  IC50: > 60 µM
Caco-2
  IC50: > 60 µM
A549
  IC50: > 60 µM

## O=C1[C@H]2[C@H](ON(c3ccccc3)[C@@H]2c2coc3ccc(F)cc3c2=O)C(=O)N1c1ccccc1 (relative stereo)
THP-1
  IC50: 43.5 µM
PC-3
  IC50: > 60 µM
Caco-2
  IC50: > 60 µM
A549
  IC50: 13.5 µM

## Cc1ccc2occ([C@@H]3[C@H]4C(=O)N(c5ccccc5)C(=O)[C@H]4ON3c3ccccc3)c(=O)c2c1
THP-1
  IC50: > 60 µM
PC-3
  IC50: 11.1 µM
Caco-2
  IC50: > 60 µM
A549
  IC50: > 60 µM

## O=c1c([C@@H]2C[C@H](c3ccccc3)ON2c2ccccc2)coc2cc(Cl)c(Cl)cc12 (relative stereo)
THP-1
  IC50: 38 µM
PC-3
  IC50: 32 µM
Caco-2
  IC50: 23.5 µM
A549
  IC50: 43 µM

## O=c1c([C@@H]2C[C@H](c3ccccc3)ON2c2ccccc2)coc2ccccc12 (relative stereo)
THP-1
  IC50: > 60 µM
PC-3
  IC50: > 60 µM
Caco-2
  IC50: > 60 µM
A549
  IC50: > 60 µM

## CCO[C@H]1C[C@@H](c2coc3ccc(Br)cc3c2=O)N(c2ccccc2)O1 (relative stereo)
THP-1
  IC50: > 60 µM
PC-3
  IC50: > 60 µM
Caco-2
  IC50: > 60 µM
A549
  IC50: 21.5 µM

## Cc1ccc2occ([C@@H]3C[C@H](c4ccccc4)ON3c3ccccc3)c(=O)c2c1 (relative stereo)
THP-1
  IC50: > 60 µM
PC-3
  IC50: > 60 µM
Caco-2
  IC50: 31.7 µM
A549
  IC50: 49 µM

## CO[C@@]12[C@H](COC(N)=O)C3=C(C(=O)C(C)=C(N)C3=O)N1C[C@@H]1N[C@@H]12 [MITOMYCIN]
A549
  IC50: 0.4 µM

## CCO[C@H]1C[C@@H](c2coc3cc(Cl)c(Cl)cc3c2=O)N(c2ccccc2)O1 (relative stereo)
THP-1
  IC50: 16.5 µM
PC-3
  IC50: > 60 µM
Caco-2
  IC50: > 60 µM
A549
  IC50: 19.8 µM

## CCO[C@H]1C[C@@H](c2coc3ccccc3c2=O)N(c2ccccc2)O1 (relative stereo)
THP-1
  IC50: > 60 µM
PC-3
  IC50: > 60 µM
Caco-2
  IC50: > 60 µM
A549
  IC50: > 60 µM

## O=c1c([C@@H]2C[C@H](c3ccccc3)ON2c2ccccc2)coc2ccc(F)cc12 (relative stereo)
THP-1
  IC50: 54.7 µM
PC-3
  IC50: 49 µM
Caco-2
  IC50: 60 µM
A549
  IC50: 51.5 µM

## COC(=O)[C@@]1(C)C[C@@H](c2coc3ccc(Br)cc3c2=O)N(c2ccccc2)O1 (relative stereo)
THP-1
  IC50: 14.7 µM
PC-3
  IC50: > 60 µM
Caco-2
  IC50: > 60 µM
A549
  IC50: 9.9 µM

## O=c1c([C@@H]2C[C@H](c3ccccc3)ON2c2ccccc2)coc2ccc(Br)cc12 (relative stereo)
THP-1
  IC50: 60 µM
PC-3
  IC50: 60 µM
Caco-2
  IC50: > 60 µM
A549
  IC50: 51 µM

## COC(=O)[C@@]1(C)C[C@@H](c2coc3ccc(F)cc3c2=O)N(c2ccccc2)O1 (relative stereo)
THP-1
  IC50: 47 µM
PC-3
  IC50: 31.3 µM
Caco-2
  IC50: 29.5 µM
A549
  IC50: 20.3 µM

## O=c1c([C@@H]2C[C@H](c3ccncc3)ON2c2ccccc2)coc2ccccc12 (relative stereo)
THP-1
  IC50: 16.4 µM
PC-3
  IC50: 46 µM
Caco-2
  IC50: 37 µM
A549
  IC50: 19.3 µM

## CCO[C@H]1C[C@@H](c2coc3ccc(C)cc3c2=O)N(c2ccccc2)O1 (relative stereo)
THP-1
  IC50: 41 µM
PC-3
  IC50: 39 µM
Caco-2
  IC50: 31 µM
A549
  IC50: 20.7 µM

## NC(=O)[C@H]1C[C@@H](c2coc3ccccc3c2=O)N(c2ccccc2)O1 (relative stereo)
THP-1
  IC50: > 60 µM
PC-3
  IC50: > 60 µM
Caco-2
  IC50: > 60 µM
A549
  IC50: > 60 µM

## COC(=O)[C@@]1(C)C[C@@H](c2coc3ccc(C)cc3c2=O)N(c2ccccc2)O1 (relative stereo)
HL-60 [1]
  Activity: 36.6%
THP-1
  IC50: 7.3 µM
HL-60 [2]
  Activity: 44.6%
HL-60 [3]
  Activity: Active
PC-3
  IC50: > 60 µM
HL-60 [4]
  Activity: 50.2%
HL-60 [5]
  Activity: Active
HL-60 [6]
  Activity: Dose-dependent effect
HL-60 [7]
  Activity: 62.9%
Caco-2
  IC50: 19.7 µM
HL-60 [8]
  Activity: 92%
HL-60 [9]
  Activity: 4.9%
HL-60 [10]
  Activity: 53.9%
A549
  IC50: 0.7 µM
HL-60 [11]
  Activity: 41.6%
HL-60 [12]
  Activity: 7.9%
HL-60 [13]
  Activity: 45.7%

## N#C[C@H]1C[C@@H](c2coc3ccc(Cl)cc3c2=O)N(c2ccccc2)O1 (relative stereo)
THP-1
  IC50: 35 µM
PC-3
  IC50: 41 µM
Caco-2
  IC50: 39 µM
A549
  IC50: 40 µM

## COC(=O)[C@H]1C[C@@H](c2coc3ccc(Cl)cc3c2=O)N(c2ccccc2)O1 (relative stereo)
THP-1
  IC50: > 60 µM
PC-3
  IC50: > 60 µM
Caco-2
  IC50: > 60 µM
A549
  IC50: > 60 µM

## O=C1[C@H]2[C@H](ON(c3ccccc3)[C@@H]2c2coc3ccc(Br)cc3c2=O)C(=O)N1c1ccccc1 (relative stereo)
THP-1
  IC50: 22.3 µM
PC-3
  IC50: 13.3 µM
Caco-2
  IC50: 20.3 µM
A549
  IC50: 17 µM

## CC[C@@]1(O)C(=O)OCc2c1cc1n(c2=O)Cc2cc3ccccc3nc2-1 [CAMPTOTHECIN]
HL-60 [14]
  Activity: 61.8%
HL-60 [15]
  Activity: 46.1%
HL-60 [16]
  Activity: 53.3%

## Cc1ccc2occ([C@@H]3C[C@H](OCC(C)C)ON3c3ccccc3)c(=O)c2c1 (relative stereo)
THP-1
  IC50: 21.5 µM
PC-3
  IC50: 37.7 µM
Caco-2
  IC50: > 60 µM
A549
  IC50: 17.1 µM
